From PubChem BioAssay AID296 (DTP/NCI, 2004)
Several values for one entry are separate records, joined by “and”; a condition that tells them apart may be missing. Equal entries are not always repeated. Inconclusive results are not listed.

System: MX-1 breast xenograft, nude mice, tumor weight T/C
Assay: NCI In Vivo Anticancer Drug Screen. Data for tumor model Human Mammary Carcinoma MX-1 Xenograft (intrarenal inoculation) in NU/NU Swiss (nude) mice
Settings: endpoint: mean tumor weight change, higher = larger tumour
Summary of the method: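 Compound dosed to mice with transplantable tumor; vehicle group as control. Endpoint survival or tumour size, reported as T/C.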

[1] = dose: 50.0 mg/kg/injection, schedule: Q01DX010 (sc), vehicle: Klucel (hydroxypropylcellulose) (HPC)
[2] = dose: 100.0 mg/kg/injection, schedule: Q01DX010 (sc), vehicle: Klucel (hydroxypropylcellulose) (HPC)
[3] = dose: 400.0 mg/kg/injection, schedule: Q01DX010 (sc), vehicle: Klucel (hydroxypropylcellulose) (HPC)
[4] = dose: 200.0 mg/kg/injection, schedule: Q01DX010 (sc), vehicle: Klucel (hydroxypropylcellulose) (HPC)
[5] = dose: 100.0 mg/kg/injection, schedule: Q01DX010 (sc), vehicle: saline
[6] = dose: 200.0 mg/kg/injection, schedule: Q01DX010 (sc), vehicle: saline
[7] = dose: 25.0 mg/kg/injection, schedule: Q01DX010 (sc), vehicle: Klucel (hydroxypropylcellulose) (HPC)
[8] = dose: 300.0 mg/kg/injection, schedule: Q04DX003 (sc), vehicle: saline with Tween-80
[9] = dose: 600.0 mg/kg/injection, schedule: Q04DX003 (sc), vehicle: saline with Tween-80
[10] = dose: 75.0 mg/kg/injection, schedule: Q04DX003 (sc), vehicle: saline with Tween-80
[11] = dose: 150.0 mg/kg/injection, schedule: Q04DX003 (sc), vehicle: saline with Tween-80
[12] = dose: 300.0 mg/kg/injection, schedule: Q04DX003 (sc), vehicle: saline

`CN=C(N)N/N=C(\C)c1ccc2c(c1)Cc1cc(/C(C)=N/NC(N)=NC)ccc1-2` was tested, and the T/C (dose: 6.0 mg/kg/injection, schedule: Q04DX003 (sc), vehicle: saline with Tween-80) was 46 % of control, the T/C (dose: 12.0 mg/kg/injection, schedule: Q04DX003 (sc), vehicle: saline with Tween-80) was 84 % of control and the T/C (dose: 24.0 mg/kg/injection, schedule: Q04DX003 (sc), vehicle: saline with Tween-80) was 100 % of control. The T/C (dose: 48.0 mg/kg/injection, schedule: Q04DX003 (sc), vehicle: saline with Tween-80) was 58 % of control.

In the case of `OCC1OC(n2cnc3c2NC=NC[C@H]3O)CC1O` (stereo not given in full), the T/C (dose: 1.0 mg/kg/injection, schedule: Q01DX010 (sc), vehicle: water) is reported as 124 % of control, the T/C (dose: 2.0 mg/kg/injection, schedule: Q01DX010 (sc), vehicle: water) is reported as 41 % of control and the T/C (dose: 8.0 mg/kg/injection, schedule: Q01DX010 (sc), vehicle: water) is reported as 28 % of control.

For `Oc1cc2c3c(c1)c1cc4c(cc1c[n+]3CC2)OCO4`, the T/C (dose: 200.0 mg/kg/injection, schedule: Q04DX003 (sc), vehicle: water) was 72 % of control, the T/C (dose: 400.0 mg/kg/injection, schedule: Q04DX003 (sc), vehicle: water) was 100 % of control and the T/C (dose: 1600.0 mg/kg/injection, schedule: Q04DX003 (sc), vehicle: water) was 72 % of control.

`CC(=S)NC(O)C(=O)c1ccccc1` (stereo not given) was tested, and the T/C (dose: 200.0 mg/kg/injection, schedule: Q04DX003 (sc), vehicle: saline with Tween-80) was 163 % of control, the T/C (dose: 400.0 mg/kg/injection, schedule: Q04DX003 (sc), vehicle: saline with Tween-80) was 122 % of control and the T/C (dose: 800.0 mg/kg/injection, schedule: Q04DX003 (sc), vehicle: saline with Tween-80) was 152 % of control. For the same molecule, the T/C (dose: 1600.0 mg/kg/injection, schedule: Q04DX003 (sc), vehicle: saline with Tween-80) was 123 % of control.

`c1ccc2c(NCCCCCCCCNc3c4ccccc4nc4ccccc34)c3ccccc3nc2c1` was tested, and the T/C (dose: 10.0 mg/kg/injection, schedule: Q01DX010 (sc), vehicle: Klucel (hydroxypropylcellulose) (HPC)) was 93 % of control, the T/C (dose: 20.0 mg/kg/injection, schedule: Q01DX010 (sc), vehicle: Klucel (hydroxypropylcellulose) (HPC)) was 16 % of control and the T/C (dose: 40.0 mg/kg/injection, schedule: Q01DX010 (sc), vehicle: Klucel (hydroxypropylcellulose) (HPC)) was 93 % of control. The T/C (dose: 80.0 mg/kg/injection, schedule: Q01DX010 (sc), vehicle: Klucel (hydroxypropylcellulose) (HPC)) was 58 % of control.

`O=[N+]([O-])/C=C\c1ccc2c(c1)OCO2` was tested, and the T/C [1] was 214 % of control, the T/C [2] was 91 % of control and the T/C [3] was 86 % of control.

`CN(C)/N=N/c1nc[nH]c1C(N)=O` was tested, and the T/C [2] was 93 % of control, the T/C [4] was 48 % of control and the T/C [3] was 14 % of control.

With `c1ccc(CN2CCOC2)cc1` the T/C (dose: 25.0 mg/kg/injection, schedule: Q01DX010 (sc), vehicle: saline) was 60 % of control, the T/C (dose: 50.0 mg/kg/injection, schedule: Q01DX010 (sc), vehicle: saline) was 78 % of control and the T/C [5] was 70 % of control. The T/C [6] was 47 % of control.

`CCCCCC(O)C1C(=O)OC(C)C(O)/C=C/C=C/C=C/C=C\C=C(\C)C(O)CC(O)CC(O)CC(O)CC(O)CC(O)CC1O` (stereo not given) was tested, and the T/C (dose: 300.0 mg/kg/injection, schedule: Q04DX003 (sc), vehicle: distilled water + alcohol) was 84 % of control, the T/C (dose: 600.0 mg/kg/injection, schedule: Q04DX003 (sc), vehicle: distilled water + alcohol) was 107 % of control and the T/C (dose: 1200.0 mg/kg/injection, schedule: Q04DX003 (sc), vehicle: distilled water + alcohol) was 69 % of control.

With `COc1cc2c(c(OC)c1OC)-c1ccc(OC)c(=O)cc1[C@@H](NC(=O)CCl)CC2` the T/C (dose: 1.25 mg/kg/injection, schedule: Q04DX003 (sc), vehicle: saline with Tween-80) was 90 % of control, the T/C (dose: 2.5 mg/kg/injection, schedule: Q04DX003 (sc), vehicle: saline with Tween-80) was 64 % of control and the T/C (dose: 5.0 mg/kg/injection, schedule: Q04DX003 (sc), vehicle: saline with Tween-80) was 21 % of control. For the same molecule, the T/C (dose: 10.0 mg/kg/injection, schedule: Q04DX003 (sc), vehicle: saline with Tween-80) was -92 % of control.

`O=NN(CCCl)C(=O)NCCO` was tested, and the T/C (dose: 3.12 mg/kg/injection, schedule: Q04DX003 (sc), vehicle: water) was 72 % of control and 208 % of control and the T/C (dose: 12.5 mg/kg/injection, schedule: Q04DX003 (sc), vehicle: water) was 10 % of control.

`N=C(N)SCc1cccc2c(=O)cc(-c3ccccc3)oc12` was tested, and the T/C (dose: 300.0 mg/kg/injection, schedule: Q04DX003 (sc), vehicle: suspension in saline) was 110 % of control.

`C=CCNc1ccc(C)cc1` was tested, and the T/C [7] was 97 % of control, the T/C [1] was 69 % of control and 70 % of control and the T/C [4] was 70 % of control and 76 % of control. The T/C [3] was 16 % of control.

In the case of `CCC1=C2C(=O)c3ccccc3C2=C(C)S(=O)(=O)O1`, the T/C [8] is reported as 122 % of control, the T/C [9] is reported as 104 % of control and the T/C (dose: 1200.0 mg/kg/injection, schedule: Q04DX003 (sc), vehicle: saline with Tween-80) is reported as 106 % of control.

In the case of `C/C(=C\c1ccccc1)[N+](=O)[O-]`, the T/C [7] is reported as 38 % of control, the T/C [1] is reported as 88 % of control and the T/C [2] is reported as 45 % of control and 53 % of control. The T/C [4] was 55 % of control and 59 % of control.

With `CC/C(=C(/CC)c1ccc(O)cc1)c1ccc(O)cc1` the T/C [10] was 66 % of control, the T/C [11] was 47 % of control and the T/C [8] was 48 % of control. The T/C [9] was 55 % of control.

With `CCCCCC(=O)O[C@]1(C(C)=O)CC[C@H]2[C@@H]3CCC4=CC(=O)CC[C@]4(C)[C@H]3CC[C@@]21C` the T/C (dose: 600.0 mg/kg/injection, schedule: Q04DX003 (sc), vehicle: Klucel (hydroxypropylcellulose) (HPC)) was 98 % of control and the T/C (dose: 2400.0 mg/kg/injection, schedule: Q04DX003 (sc), vehicle: Klucel (hydroxypropylcellulose) (HPC)) was 85 % of control.

With `O=C(O)C1(C(=O)O)CCC1.[NH2-].[NH2-].[Pt+2]` the T/C (dose: 12.5 mg/kg/injection, schedule: Q01DX010 (sc), vehicle: dextrose) was 2 % of control and 11 % of control and the T/C (dose: 50.0 mg/kg/injection, schedule: Q01DX010 (sc), vehicle: dextrose) was -87 % of control and -75 % of control.

For `CC(C)CCCCCCCCCCCCC(=O)NCC(=O)NC1C(C)OC(Nc2ncnc3nc[nH]c23)C(O)C1O` (stereo not given), the T/C (dose: 1.0 mg/kg/injection, schedule: Q01DX010 (sc), vehicle: distilled water + Tween-80) was 68 % of control, the T/C (dose: 2.0 mg/kg/injection, schedule: Q01DX010 (sc), vehicle: distilled water + Tween-80) was 75 % of control and the T/C (dose: 4.0 mg/kg/injection, schedule: Q01DX010 (sc), vehicle: distilled water + Tween-80) was 55 % of control. The T/C (dose: 8.0 mg/kg/injection, schedule: Q01DX010 (sc), vehicle: distilled water + Tween-80) was 25 % of control.

`C[C@H](N)C(=O)N[C@@H]1[C@H]2C(=C(O)C[C@@H](O)[C@@H]2O)C(=O)O[C@@H]1C` was tested, and the T/C [12] was 81 % of control, the T/C (dose: 600.0 mg/kg/injection, schedule: Q04DX003 (sc), vehicle: saline) was 67 % of control and the T/C (dose: 1200.0 mg/kg/injection, schedule: Q04DX003 (sc), vehicle: saline) was 88 % of control. The T/C (dose: 2400.0 mg/kg/injection, schedule: Q04DX003 (sc), vehicle: saline) was 99 % of control.

For `Cc1cc2nc3[nH]c4ccccc4c3nc2cc1C`, the T/C [5] was 92 % of control, the T/C [6] was 103 % of control and the T/C (dose: 400.0 mg/kg/injection, schedule: Q01DX010 (sc), vehicle: saline) was 63 % of control. The T/C (dose: 800.0 mg/kg/injection, schedule: Q01DX010 (sc), vehicle: saline) was 69 % of control.

For `Cc1c2ccncc2c(C)c2c1[nH]c1ccccc12`, the T/C (dose: 6.25 mg/kg/injection, schedule: Q01DX010 (sc), vehicle: saline) was 63 % of control, the T/C (dose: 50.0 mg/kg/injection, schedule: Q01DX010 (sc), vehicle: suspension in saline) was 81 % of control and the T/C (dose: 200.0 mg/kg/injection, schedule: Q01DX010 (sc), vehicle: suspension in saline) was 85 % of control.

`O=C(Nc1ccc(C2=NCCN2)cc1)c1ccc(C(=O)Nc2ccc(C3=NCCN3)cc2)c(Cl)c1` was tested, and the T/C (dose: 75.0 mg/kg/injection, schedule: Q04DX003 (sc), vehicle: water) was 81 % of control, the T/C (dose: 150.0 mg/kg/injection, schedule: Q04DX003 (sc), vehicle: water) was 49 % of control and the T/C (dose: 300.0 mg/kg/injection, schedule: Q04DX003 (sc), vehicle: water) was 21 % of control.

`C1CNCOC1` was tested, and the T/C (dose: 150.0 mg/kg/injection, schedule: Q04DX003 (sc), vehicle: saline) was 100 % of control and the T/C [12] was 84 % of control.

For `Cn1c2nc(=O)n(-c3ccccc3)c(=O)c-2nc2c1CCCC2`, the T/C (dose: 37.5 mg/kg/injection, schedule: Q04DX003 (sc), vehicle: saline with Tween-80) was 104 % of control, the T/C [10] was 111 % of control and the T/C [11] was 87 % of control.
